Measurements: article PMC6436534 (Chemistry (Weinheim an der Bergstrasse, Germany), 2019)
Values after ≈ are worked out from the molar mass of the structure shown. Read-outs that look alike come from different tables or passages of the source.

Tests used:
[1] = traditional octanol water partition coefficient determination
[2] = Chemical stability on storage; type: physicochemical; settings: stored at 8 °C for approximately two years, 1H NMR analysis
mouse = settings: earlier in vivo mouse studies; cited from earlier work
adult male C57BL6/J mice = assay: Open field test; type: in vivo; settings: OFT, compared to vehicle (water)
[3] = test system: vitamin K epoxide reductase (VKOR); assay: VKOR inhibition in FIXgla-PC/HEK293 reporter cells; settings: relative to (R)-enantiomer of cubane analogue
[4] = test system: melanoma (MM96L) cell line; assay: Activity against melanoma cell line; type: cell-based
[5] = test system: breast cancer (MCF7) cell line; assay: Activity against breast cancer cell line; type: cell-based; settings: for IC50: MCF7 breast cancer cell line
scabies mites = assay: Scabies mite mortality; settings: at 8 h; same concentration as benzyl benzoate
[6] = for half-life: human liver microsomes, standard 60 min incubation; for metabolites observed by LC-MS: stored human liver microsomal incubates
[7] = clinically relevant warfarin analogue; cited from earlier work

With CC1(O)CC(C2=CC=CC=CC=C2)c2c(c3ccccc3oc2=O)O1 (stereo not shown) [compound 8, COT-warfarin] the “log P” value [1] was 2.82 and the chemical stability [2] was “no signs of decomposition”.

In the case of O=C(CCCCCCC(=O)Nc1ccccc1)NO [compound 11, suberanilohydroxamic acid, reference compound], the “log P” value [1] is given as 0.99 and the in vivo activity (mouse) is given as “identical activity”.

For O=C(NCCN1CCOCC1)c1ccc(Cl)cc1 [compound 9, moclobemide], the “locomotor profile / total distance travelled” value (adult male C57BL6/J mice) was “decrease the total distance travelled by the same amount compared to the vehicle”.

For CC(=O)CC(c1c(O)c2ccccc2oc1=O)C12C3C4C5C3C1C5C42 [(S)-cubane analogue], the “VKOR inhibition, fold lower activity than the (R)-enantiomer” value [3] was “ca. 3 fold”.

In the case of O=C(CCCCCCC(=O)NC1=CC=CC=CC=C1)NO [compound 23], the IC50 [4] is reported as 0.073 ± 0.008 µg/mL (≈ 0.251 µM), the “log P” value [1] is reported as 1.38 and the “fold less active than SAHA” value ([5]; MCF7 and MM96L cell lines, relative to SAHA) is reported as “ca. 2 fold”. For the same compound, the “fold more active than 16” value ([5]; MCF7 and MM96L cell lines, relative to cubane derivative 16) was “ca. 2 fold” and the IC50 [5] was 0.037 ± 0.003 µg/mL (≈ 0.127 µM).

For O=C(OCc1ccccc1)C1=CC=CC=CC=C1 [compound 26], the “log P” value [1] was 3.34 and the mite mortality (scabies mites) was 75%.

For O=C(CCCCCCC(=O)NC12C3C4C5C3C1C5C42)NO (stereo not shown) [compound 16], the IC50 [4] is listed as 0.137 ± 0.005 µg/mL (≈ 0.472 µM), the “log P” value [1] is listed as 1.52 and the in vivo activity (mouse) is listed as “identical activity”. The IC50 [5] was 0.053 ± 0.004 µg/mL (≈ 0.183 µM).

With CC(=O)C[C@@H](C1=CC=CC=CC=C1)c1c(O)c2ccccc2oc1=O [(S)-COT] the half-life [6] was 1.83 ± 0.633 h and the “metabolites observed by LC-MS” value [6] was “substantial peaks exhibiting an M+16”.

For CC(=O)C[C@H](C1=CC=CC=CC=C1)c1c(O)c2ccccc2oc1=O [(R)-COT], the half-life [6] was 2.17 ± 0.333 h and the “metabolites observed by LC-MS” value [6] was “significant quantities of an M+2 metabolite”.

For CC(=O)CC(c1ccc([N+](=O)[O-])cc1)c1c(O)c2ccccc2oc1=O (stereo not shown) [acenocoumarol], the half-life [7] is listed as 10 h.
